Columns and labels:
sGC = molecular target: T1, sGC (Rattus norvegicus, UniProt P20595); test: sGC-activating activity in the CHO reporter cell in vitro; format: cell-based
T1 construct: expressed in transfected cells; host or cells: CHO reporter cell line
T1 sequence (P20595 1-619): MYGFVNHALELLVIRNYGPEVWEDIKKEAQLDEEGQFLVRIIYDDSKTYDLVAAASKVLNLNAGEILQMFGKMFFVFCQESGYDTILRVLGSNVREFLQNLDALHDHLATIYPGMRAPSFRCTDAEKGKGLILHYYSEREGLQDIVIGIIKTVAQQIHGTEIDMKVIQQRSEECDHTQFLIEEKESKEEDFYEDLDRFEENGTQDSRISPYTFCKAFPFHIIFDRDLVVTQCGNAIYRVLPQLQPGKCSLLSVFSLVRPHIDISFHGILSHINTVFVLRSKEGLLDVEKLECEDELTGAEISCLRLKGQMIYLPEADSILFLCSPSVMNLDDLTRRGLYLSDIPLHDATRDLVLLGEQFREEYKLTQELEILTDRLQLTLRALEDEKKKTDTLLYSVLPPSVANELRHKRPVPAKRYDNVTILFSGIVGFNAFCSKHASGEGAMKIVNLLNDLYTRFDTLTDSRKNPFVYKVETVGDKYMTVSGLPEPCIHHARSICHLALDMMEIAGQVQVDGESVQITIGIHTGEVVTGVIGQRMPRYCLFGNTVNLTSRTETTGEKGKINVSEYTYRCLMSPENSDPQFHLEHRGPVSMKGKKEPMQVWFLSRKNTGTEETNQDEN
T1 sequence (P19686 1-690 partner): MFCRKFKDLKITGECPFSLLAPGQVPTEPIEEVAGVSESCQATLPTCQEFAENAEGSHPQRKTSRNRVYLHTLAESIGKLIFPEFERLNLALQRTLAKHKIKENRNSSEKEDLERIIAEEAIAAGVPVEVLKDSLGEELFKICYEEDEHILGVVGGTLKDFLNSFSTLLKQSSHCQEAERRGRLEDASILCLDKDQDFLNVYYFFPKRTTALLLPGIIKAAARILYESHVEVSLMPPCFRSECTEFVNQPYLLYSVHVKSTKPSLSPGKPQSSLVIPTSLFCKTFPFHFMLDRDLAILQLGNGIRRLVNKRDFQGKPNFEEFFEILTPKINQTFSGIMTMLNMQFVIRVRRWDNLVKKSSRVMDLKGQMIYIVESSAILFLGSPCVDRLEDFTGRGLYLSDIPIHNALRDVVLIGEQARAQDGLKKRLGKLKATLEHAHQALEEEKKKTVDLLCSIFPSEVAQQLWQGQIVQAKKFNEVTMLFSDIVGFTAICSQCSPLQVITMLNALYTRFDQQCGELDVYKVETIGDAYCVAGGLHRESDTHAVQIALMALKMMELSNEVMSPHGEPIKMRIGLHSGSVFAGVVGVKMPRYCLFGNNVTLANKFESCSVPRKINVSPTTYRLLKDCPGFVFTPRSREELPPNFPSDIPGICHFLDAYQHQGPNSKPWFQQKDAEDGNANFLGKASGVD
Experimental: The cellular action of the compounds according to the invention is determined at a recombinant guanylate cyclase reporter cell line, as described in F. Wunder et al., Anal. Biochem. 339, 104-112 (2005).

saphenous artery = test: Vasorelaxant effect in vitro (phenylephrine-contracted artery rings); parameters: species or system Rabbits; settings: Oryctolagus cuniculus; concentration reducing phenylephrine-induced contraction of rabbit saphenous artery rings by 50%
Experimental: Rabbits are anesthetized and sacrificed by intravenous injection of thiopental sodium (about 50 mg/kg) and exsanguinated. The saphenous artery is removed and divided into rings 3 mm wide. The rings are mounted singly on in each case a pair of triangular hooks open at the end and made of 0.3 mm-thick special wire (Remanium®). Each ring is placed under an initial tension in 5 ml organ baths with Krebs-Henseleit solution which is at 37° C., is gassed with carbogen and has the following composition: NaCl 119 mM; KCl 4.8 mM; CaCl2×2 H2O 1 mM; MgSO4×7 H2O 1.4 mM; KH2PO4 1.2 mM; NaHCO3 25 mM; glucose 10 mM; bovine serum albumin 0.001%. The force of contraction is detected with Statham UC2 cells, amplified and digitized via A/D converters (DAS-1802 HC, Keithley Instruments, Munich) and recorded in parallel on chart recorders. Contractions are induced by addition of phenylephrine.
After several (generally 4) control cycles, the substance to be investigated is added in each further run in increasing dosage, and the level of the contraction achieved under the influence of the test substance is compared with the level of the contraction reached in the last preceding run. The concentration necessary to reduce the contraction reached in the preceding control by 50% is calculated from this (IC50). The standard application volume is 5 μl. The proportion of DMSO in the bath solution corresponds to 0.1%.

Heme-containing sGC = molecular target: T2, Heme-containing sGC (Rattus norvegicus, UniProt P20595); test: Stimulation of recombinant soluble guanylate cyclase in vitro, heme-containing enzyme; format: biochemical
T2 construct: made in house; host or cells: baculovirus/Sf9 insect cells
T2 sequence (P20595 1-619): T1 sequence (P20595 1-619)
T2 sequence (P19686 1-690 partner): T1 sequence (P19686 1-690 partner)
Excerpt: Hoenicka, E. M. Becker, H. Apeler, T. Sirichoke, H. Schroeder, R. Gerzer and J.-P. Stasch, “Purified soluble guanylyl cyclase expressed in a baculovirus/Sf9 system: Stimulation by YC-1, nitric oxide, and carbon oxide”, J. Mol. Med. 77 (1999), 14-23. The heme-free guanylate cyclase is obtained by adding Tween 20 to the sample buffer (0.5% in the final concentration).
The activation of sGC by a test substance is reported as n-fold stimulation of the basal activity.

## O=C(NCCCCC1(C(=O)O)CC1)C(c1ccc(CN2N=C(c3ccccc3)OCC2=O)cc1)C1CCCC1 (single isomer, unassigned; (+)) [Example 1, (+)-1-(4-{[2-cyclopentyl-2-{4-[(5-oxo-2-phenyl-5,6-dihydro-4H-1,3,4-oxadiazin-4-yl)methyl]phenyl}-acetyl]amino}butyl)cyclopropanecarboxylic acid]
sGC
  MEC (minimum effective concentration), sGC-activating activity in the CHO reporter cell: 10 nM
Saphenous artery
  IC50: 284 nM
Heme-containing sGC; 0.1 μM Example 1
  Stimulation (n-fold) of heme-containing sGC, Basal: 1.5 n-fold
Heme-containing sGC; 0.1 μM Example 1 + 0.1 μM DEA/NO
  Stimulation (n-fold) of heme-containing sGC, +0.1 μM DEA/NO: 21.9 n-fold
Heme-containing sGC; 0.1 μM Example 1 + 10 μM ODQ
  Stimulation (n-fold) of heme-containing sGC, +10 μM ODQ: 3.0 n-fold
Heme-containing sGC; 1 μM Example 1
  Stimulation (n-fold) of heme-containing sGC, Basal: 1.4 n-fold
Heme-containing sGC; 1 μM Example 1 + 0.1 μM DEA/NO
  Stimulation (n-fold) of heme-containing sGC, +0.1 μM DEA/NO: 19.3 n-fold
Heme-containing sGC; 1 μM Example 1 + 10 μM ODQ
  Stimulation (n-fold) of heme-containing sGC, +10 μM ODQ: 3.7 n-fold
Heme-containing sGC; 10 μM Example 1
  Stimulation (n-fold) of heme-containing sGC, Basal: 2.6 n-fold
Heme-containing sGC; 10 μM Example 1 + 0.1 μM DEA/NO
  Stimulation (n-fold) of heme-containing sGC, +0.1 μM DEA/NO: 20.0 n-fold
Heme-containing sGC; 10 μM Example 1 + 10 μM ODQ
  Stimulation (n-fold) of heme-containing sGC, +10 μM ODQ: 10.3 n-fold
Heme-containing sGC; 100 μM Example 1
  Stimulation (n-fold) of heme-containing sGC, Basal: 14.0 n-fold
Heme-containing sGC; 100 μM Example 1 + 0.1 μM DEA/NO
  Stimulation (n-fold) of heme-containing sGC, +0.1 μM DEA/NO: 37.8 n-fold
Heme-containing sGC; 100 μM Example 1 + 10 μM ODQ
  Stimulation (n-fold) of heme-containing sGC, +10 μM ODQ: 46.6 n-fold
Heme-containing sGC; combination with DEA/NO, heme-containing sGC
  Effect of combination with the NO donor DEA/NO on sGC stimulation: no synergistic effect
Heme-containing sGC; with ODQ, heme-containing sGC, effect is in fact increased
  Effect of the heme-dependent sGC inhibitor ODQ on sGC activation: not blocked
